ChEMBL document CHEMBL1201862, “PubChem BioAssay data set” (2004)
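Following 48 hours of exposure in 96-well plates, responses at five concentrations were used to interpolate endpoints linearly. The concentration for 50% growth inhibition is given as GI50.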 Activity calls are given as the source filed them. Rule as the data show it: active = GI50 up to about 1.1 µM and inactive = higher.

Columns and labels:
Assay in all cases: NCI anticancer screen, dose series, 48 h
HOP-62 = system: HOP-62
EKVX = system: EKVX
K562 = system: K562
NCI-H460 = system: NCI-H460
SK-OV-3 = system: SK-OV-3
UACC-62 = system: UACC-62
NCI-H23 = system: NCI-H23
SK-MEL-28 = system: SK-MEL-28
KM12 = system: KM12
HCC 2998 = system: HCC 2998
RPMI-8226 = system: RPMI-8226
IGROV-1 = system: IGROV-1
HCT-15 = system: HCT-15
MCF7 = system: MCF7
SNB-19 = system: SNB-19
OVCAR-4 = system: OVCAR-4
UACC-257 = system: UACC-257
CAKI-1 = system: CAKI-1
NCI-H226 = system: NCI-H226
Malme-3M = system: Malme-3M

Row | SMILES | GI50 (HOP-62) | GI50 (EKVX) | GI50 (K562) | GI50 (NCI-H460) | GI50 (SK-OV-3) | GI50 (UACC-62) | GI50 (NCI-H23) | GI50 (SK-MEL-28) | GI50 (KM12) | GI50 (HCC 2998) | GI50 (RPMI-8226) | GI50 (IGROV-1) | GI50 (HCT-15) | GI50 (MCF7) | GI50 (SNB-19) | GI50 (OVCAR-4) | GI50 (UACC-257) | GI50 (CAKI-1) | GI50 (NCI-H226) | GI50 (Malme-3M)
1 | Cn1cc(-c2cnc(-c3cn(C)c4ccccc34)cn2)c2ccccc21 | 6.59 µM (inactive) | 10.1 µM (inactive) | 3.8 µM (inactive) | 4.51 µM (inactive) | 14.6 µM (inactive) | 2.86 µM (inactive) | 4.25 µM (inactive) | 6.37 µM (inactive) | 0.0471 µM (active) | 5.61 µM (inactive) | 4.98 µM (inactive) | 3.8 µM (inactive) | 0.187 µM | 0.194 µM (active) | 4.71 µM (inactive) | 11.6 µM (inactive) | 16 µM (inactive) | 6.67 µM (inactive) | 6.31 µM (inactive) | 5.11 µM (inactive)
2 | Cc1cc(NS(=O)(=O)c2ccc(Nc3c4ccccc4nc4c(C(=O)NC(CO)(CO)CO)cccc34)cc2)no1 | 25.1 µM (inactive) | 73.6 µM (inactive) | 33.3 µM (inactive) | > 10 µM (inactive) | 35.2 µM (inactive) | 22 µM (inactive) | 43.6 µM (inactive) | 52.8 µM (inactive) | 25.2 µM (inactive) | 16.9 µM (inactive) | 19.7 µM (inactive) | 29 µM (inactive) | 61.7 µM | 23.3 µM (inactive) | 34.4 µM (inactive) | 48.8 µM (inactive) | 72.1 µM (inactive) | 42.2 µM (inactive) |  | 29.4 µM (inactive)
3 | CCOc1cc2c(cc1O)C(O)C[C@@H]1[C@@H]2CC[C@]2(C)[C@@H](O)CC[C@@H]12 (stereo partly drawn) | 0.675 µM (active) | 1.32 µM (inactive) | 0.0991 µM (active) | 0.265 µM (active) | 0.493 µM (active) | 0.284 µM (active) | 0.766 µM (active) |  | 3.24 µM (inactive) | 3.03 µM (inactive) | 0.467 µM (active) | 0.431 µM (active) | 0.218 µM | 0.268 µM (active) | 0.465 µM (active) | > 100 µM (inactive) | 0.444 µM (active) | 0.514 µM (active) | 0.552 µM (active) | 0.307 µM (active)
4 | O=C1C(=O)c2cc([N+](=O)[O-])ccc2-c2ccc([N+](=O)[O-])cc21 | 2.89 µM (inactive) | 2.04 µM (inactive) | 0.395 µM (active) | 1 µM (active) | 2.51 µM (inactive) | 0.466 µM (active) | 0.682 µM (active) | 1.99 µM (inactive) | 0.935 µM (active) | 2.25 µM (inactive) | 0.302 µM (active) | 0.748 µM (active) | 0.785 µM | 0.933 µM (active) | 1.74 µM (inactive) | 0.322 µM (active) | 1.2 µM (inactive) | 0.733 µM (active) | 1.51 µM (inactive) | 1.97 µM (inactive)
5 | c1ccc(CN2CCC3(CC2)SSC2(CCN(Cc4ccccc4)CC2)SS3)cc1 | > 100 µM (inactive) | 12.9 µM (inactive) | > 100 µM (inactive) | > 100 µM (inactive) | > 100 µM (inactive) | > 100 µM (inactive) | 79.1 µM (inactive) | 34.9 µM (inactive) | > 100 µM (inactive) | 45.5 µM (inactive) | > 100 µM (inactive) | > 100 µM (inactive) | > 100 µM | > 100 µM (inactive) | > 100 µM (inactive) | > 100 µM (inactive) | 59.7 µM (inactive) | > 100 µM (inactive) | > 100 µM (inactive) | 97.5 µM (inactive)
6 | [C-]#[N+]C(=C\c1ccc(O)cc1)/C(=C/c1ccc(O)cc1)[N+]#[C-] [XANTOCILLIN] | 3.21 µM (inactive) | 2.06 µM (inactive) | 0.465 µM (active) | 2.42 µM (inactive) | 3.39 µM (inactive) | 1.84 µM (inactive) | 2.31 µM (inactive) | 2.61 µM (inactive) | 2.16 µM (inactive) | 3.49 µM (inactive) | 4.39 µM (inactive) | 2.13 µM (inactive) | 1.45 µM | 1.55 µM (inactive) | 2.55 µM (inactive) | 3.19 µM (inactive) | 2.53 µM (inactive) | 2.25 µM (inactive) | 2.37 µM (inactive) | 0.871 µM (active)
7 | CC(C)(CCCCC(C)(C)NC1=NCCO1)NC1=NCCO1 | > 10 µM (inactive) | > 10 µM (inactive) | > 10 µM (inactive) | > 10 µM (inactive) | > 10 µM (inactive) | > 10 µM (inactive) | > 10 µM (inactive) | > 10 µM (inactive) | > 10 µM (inactive) | > 10 µM (inactive) | > 10 µM (inactive) | > 10 µM (inactive) | > 10 µM | > 10 µM (inactive) | > 10 µM (inactive) | > 10 µM (inactive) |  | > 10 µM (inactive) | > 10 µM (inactive) | > 10 µM (inactive)
8 | CN(c1ccccc1)c1c(-c2ccccc2)c(=O)oc2c1ccc1occc12 | > 100 µM (inactive) | > 100 µM (inactive) | > 100 µM (inactive) | > 76.7 µM (inactive) | > 100 µM (inactive) | > 100 µM (inactive) | > 100 µM (inactive) | > 100 µM (inactive) | > 100 µM (inactive) | > 100 µM (inactive) |  | > 100 µM (inactive) | > 88.5 µM | > 100 µM (inactive) | > 100 µM (inactive) | > 81.8 µM (inactive) | > 100 µM (inactive) | 36.2 µM (inactive) | 0.348 µM (active) | > 100 µM (inactive)
9 | CCCNC(C#N)c1ccc(OCCCCCCCCCCOc2ccc(C(C#N)NCCC)cc2)cc1 (stereo not drawn) | 42.8 µM (inactive) | 60.5 µM (inactive) | 23.6 µM (inactive) | 50.5 µM (inactive) | 64 µM (inactive) | 61.2 µM (inactive) | 51.3 µM (inactive) | > 100 µM (inactive) | 64.7 µM (inactive) | > 100 µM (inactive) |  | 54.6 µM (inactive) | 47.3 µM | 35.2 µM (inactive) | 33.2 µM (inactive) | 34.5 µM (inactive) | 48.5 µM (inactive) |  | 30.8 µM (inactive) | 64 µM (inactive)
10 | Nc1c(C(=O)Nc2ccc(C3=NCCN3)cc2)cccc1C(=O)Nc1ccc(C2=NCCN2)cc1 |  |  | > 100 µM (inactive) | > 100 µM (inactive) | > 100 µM (inactive) | > 100 µM (inactive) | > 100 µM (inactive) | > 100 µM (inactive) | > 100 µM (inactive) | > 71.6 µM (inactive) | > 100 µM (inactive) | > 100 µM (inactive) | > 100 µM | > 100 µM (inactive) | > 100 µM (inactive) | > 100 µM (inactive) | > 100 µM (inactive) | > 100 µM (inactive) | > 100 µM (inactive) | > 100 µM (inactive)
11 | CCN(CC)c1c(C)c(C(=O)OC)nn1-c1ccccc1 | > 100 µM (inactive) | > 81.1 µM (inactive) | 36.9 µM (inactive) | > 100 µM (inactive) | > 100 µM (inactive) | > 100 µM (inactive) | 33.6 µM (inactive) | > 100 µM (inactive) | > 85.3 µM (inactive) | > 43.7 µM (inactive) | 23.2 µM (inactive) | > 100 µM (inactive) | > 100 µM | 80.4 µM (inactive) | > 72.1 µM (inactive) | > 100 µM (inactive) | 31.2 µM (inactive) | > 44.7 µM (inactive) | > 77.1 µM (inactive) | > 96.6 µM (inactive)
12 | CC(=O)O[C@H]1[C@@H](OC(C)=O)C(C)(C)/C=C/[C@H](C)C(=O)[C@@]2(OC(C)=O)C[C@@](C)(OC(C)=O)[C@H](OC(C)=O)[C@@H]2[C@H]2OC(=O)CC[C@@]2(OC(=O)c2ccccc2)[C@@H]1OCC(C)C | 6.04 µM (inactive) | 87.9 µM (inactive) | 4.51 µM (inactive) | 4.1 µM (inactive) | > 100 µM (inactive) | 46.5 µM (inactive) | 38.7 µM (inactive) |  | 39.1 µM (inactive) | 19.5 µM (inactive) |  | 68.5 µM (inactive) | > 100 µM | 37 µM (inactive) | > 100 µM (inactive) | 62.7 µM (inactive) | 85.1 µM (inactive) | 8.73 µM (inactive) | 92 µM (inactive) | 22.9 µM (inactive)
13 | C=C1C(=O)OC2/C=C(\C)CC/C=C(/C)CC(OC(=O)/C(=C/CO)CO)C12 (stereo not drawn) | > 100 µM (inactive) | > 10 µM (inactive) | 30 µM (inactive) | 64.3 µM (inactive) | > 100 µM (inactive) | 16.8 µM (inactive) | 18.2 µM (inactive) | 28.4 µM (inactive) | > 100 µM (inactive) | 23 µM (inactive) | 23.2 µM (inactive) | 33.5 µM (inactive) | 17.3 µM | 19.6 µM (inactive) | 65 µM (inactive) | 33.6 µM (inactive) | 16.4 µM (inactive) | 18.9 µM (inactive) |  | 20.1 µM (inactive)
14 | Cc1ccc(S(=O)(=O)NNC2Oc3cc4c(cc3C(c3ccccc3O)C2C)OCO4)cc1 (stereo not drawn) | 15.1 µM (inactive) | 10.7 µM (inactive) | 11.1 µM (inactive) | 12.1 µM (inactive) | 21.7 µM (inactive) | 15.7 µM (inactive) | 15.7 µM (inactive) | 15.6 µM (inactive) | 12.2 µM (inactive) | 16.9 µM (inactive) | 12.2 µM (inactive) | 12.4 µM (inactive) | 4.9 µM | 14.9 µM (inactive) | 12.7 µM (inactive) |  | 10.8 µM (inactive) | 11.5 µM (inactive) | 12.4 µM (inactive) | 12.2 µM (inactive)
